According to US10137212B2, “Tetrahydroxamate chelators of zirconium89 and niobium90 for use in diagnostic applications” (priority 2013, dated 2018):

Legend:
Format in all cases: physicochemical
[1] = complexation of ligands with ^89Zr, yield by ITLC-SG; conditions: 7.5 nmol ligand, pH 7
Experimental: All solutions described below were prepared with de-ionized water purified through a Chelex column prior to use. Stock solutions of ^89Zr at pH 7 were prepared as follow: to 450 μL of the ^89Zr solution in oxalic acid were added 450 μL of a 1M Na2CO3 solution and the pH was adjusted to 7 by addition of small aliquots of a 0.1 M Na2CO3 or 0.1 M HCl. 450 μL of water containing 3% bovine serum albumin were then added. To 45 μL of stock solution (˜1.3 MBq of ^89Zr in a typical experiment) were added 7.5 nmol (5 μL) of L5, L6, L7, C5, C6, or C7 in DMSO or the natural siderophore desferrioxamine B (DFB) mesylate in de-ionized water. These solutions were incubated at desired temperatures and time of reaction and analyzed by ITLC-SG using a 50 mM EDTA (ethylenediaminetetraacetic acid) solution adjusted to pH=7 in de-ionized water as eluant, and analyzed with a Typhoon 8600 scanner (GE Healthcare) in phosphorimaging mode. The percentage of the activity bound to the ligand after TLC was calculated by converting the TLC scan into a chromatogram and integrating the peak corresponding to the spot at the bottom of the TLC. Activity ratios were averaged out of a minimum of 2 TLCs for each condition. The influence of time and temperature on the complexation yield of ^89Zr by L5, L6, L7, C5, C6 and C7 and DFB is shown in Table 1. […]

[2] = in vitro stability of ^89Zr complexes in 0.1 M sodium phosphate buffer pH 6.5; conditions: 0.1 M sodium phosphate buffer pH 6.5, 10% DMSO, 37° C.
Experimental: (§1) 10 μL of each ^89Zr complex solution prepared as described above in Example 14 were incubated for 7 days in 40 μL Phosphate-Buffered Saline (PBS) (pH 7.4-10% DMSO) at 20° C., 40 μL sodium phosphate buffer (0.1 M, pH 6.5-10% DMSO) at 37° C., 40 μL human serum at 37° C., or 40 μL 50 mM EDTA (pH 7, 10% DMSO) at 37° C., respectively, and analyzed using the chromatographic system described in the above section after 1 h, 3 h, 1, 2, 3, 4, 5, 6, and 7 days.

[3] = in vitro stability of ^89Zr complexes in 50 mM EDTA (challenge); conditions: pH 7, 37° C.; for ^89Zr remaining complexed after a week: 7 days (n=4), FIG. 13
Experimental: FIG. 13 is a graph illustrating the stability of the ^89Zr-complexes in 50 mM EDTA at pH 7 and 37° C. over 7 days (n=4).
as §1

SMILES | complexation yield of ^89Zr ([1]; 20° C., 30 min) | complexation yield of ^89Zr ([1]; 20° C., 120 min) | complexation yield of ^89Zr ([1]; 50° C., 30 min) | complexation yield of ^89Zr ([1]; 80° C. (time not given)) | Fraction of intact complex ([2]; 1 Day) | Fraction of intact complex ([2]; 4 Days) | Fraction of intact complex ([2]; 7 Days) | ^89Zr remaining complexed after a week [3] | time of release of ~50% of ^89Zr [3]
CCCCCC(=O)N(O)CCCCCCC(=O)N(O)CCCCCCC(=O)N(O)CCCCCCC(=O)N(O)CCC [Ligand L6] | 82% | 95% | 96% | >99% | 97% | 94% | 94% | – | –
O=C1CCCCCCCN(O)C(=O)CCCCCCCN(O)C(=O)CCCCCCCN(O)C(=O)CCCCCCCN1O [Ligand C7] | 92% | >99% | >99% | >99% | >99% | 99% | 99% | 87±3% | –
CCCCCCC(=O)N(O)CCCCCCCC(=O)N(O)CCCCCCCC(=O)N(O)CCCCCCCC(=O)N(O)CCC [Ligand L7] | 88% | >99% | >99% | >99% | 99% | 98% | 98% | – | –
O=C1CCCCCCN(O)C(=O)CCCCCCN(O)C(=O)CCCCCCN(O)C(=O)CCCCCCN1O [Ligand C6] | 77% | 79% | 92% | 92% | 89% | 79% | 61% | 32±4% | a single day
O=C1CCCCCN(O)C(=O)CCCCCN(O)C(=O)CCCCCN(O)C(=O)CCCCCN1O [Ligand C5] | 17% | 22% | 23% | 29% | 69% | 46% | 42% | nearly none | within the first minutes
CCCCC(=O)N(O)CCCCCC(=O)N(O)CCCCCC(=O)N(O)CCCCCC(=O)N(O)CCC [Ligand L5] | 60% | 71% | 73% | 87.3% | 93% | 89% | 77% | – | –
CC(=O)N(O)CCCCCNC(=O)CCC(=O)N(O)CCCCCNC(=O)CCC(=O)N(O)CCCCCN [DFB, desferrioxamine B, reference compound] | >99% | >99% | >99% | >99% | 99% | 98% | 98% | – | –
